What was measured:
[1] = target: T1, OCT2 (Homo sapiens, UniProt O15244, S270A); experiment: Ranitidine uptake in HEK293 cells overexpressing OCT2 reference (Ala270); format: in vitro ADME; details: 1 μM ranitidine, 2 min
T1 construct: expressed in transfected cells; host or cells: HEK293 T-REx (Flp-In)
T1 sequence (O15244 1-555 S270A): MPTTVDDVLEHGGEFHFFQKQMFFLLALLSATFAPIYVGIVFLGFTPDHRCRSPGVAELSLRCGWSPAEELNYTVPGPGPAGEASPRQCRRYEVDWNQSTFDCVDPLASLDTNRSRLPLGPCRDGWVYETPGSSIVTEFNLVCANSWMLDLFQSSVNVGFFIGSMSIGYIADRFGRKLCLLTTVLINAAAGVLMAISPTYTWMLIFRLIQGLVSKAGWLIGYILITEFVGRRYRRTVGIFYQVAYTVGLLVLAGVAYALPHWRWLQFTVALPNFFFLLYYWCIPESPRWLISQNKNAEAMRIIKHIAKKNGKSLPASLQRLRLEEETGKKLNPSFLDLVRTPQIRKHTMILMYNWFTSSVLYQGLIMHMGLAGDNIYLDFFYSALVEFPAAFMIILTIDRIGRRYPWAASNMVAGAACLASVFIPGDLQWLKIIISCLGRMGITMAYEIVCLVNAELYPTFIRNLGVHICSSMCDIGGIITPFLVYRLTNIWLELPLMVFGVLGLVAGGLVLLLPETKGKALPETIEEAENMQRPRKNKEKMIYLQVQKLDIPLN
Source text: (§1) HEK293 or CHO cells overexpressing the human OCT1 alleles *1A (characterized by the amino acid substitution Met408Val), *1B, *1C (Phe160Leu), *1D (Pro341Leu/Met408Val), *2 (Met420del), *3 (Arg61Cys), *4 (Gly401Ser), *5 (Gly465Arg/Met420del), *6 (Cys88Arg/Met420del), *7 (Ser14Phe), *8A (Arg488Met), *8B (Arg488Met/Met408Val), *9 (Pro117Leu), *10 (Ser189Leu), *11 (Ile449Thr), *12 (Ser29Leu), or *13 (Thr245Met), the human OCT2 reference and variant alleles (Ala270Ser), human OCT3, and the control cells (transfected with the empty pcDNA5 vector) were generated by targeted chromosomal integration using the Flp-In™ System (Life Technologies, Darmstadt, Germany).
(§2) Six hundred thousand HEK293 or CHO cells were plated per well in 12-well plates (pre-coated with poly-D-lysine) and were grown for 48 hours to reach confluence. Cells were kept at 37°C and 5% CO2 in DMEM (HEK293) or RPMI (CHO), supplemented with 10% FCS, 100 U/ml penicillin, and 100 μg/ml streptomycin. Uptake experiments were performed at pH 7.4 using HBSS supplemented with 10 mM HEPES buffer (herein referred to as HBSS+). […]
(§3) For all transport measurements, the intracellular amount of substrate was normalized to the total amount of protein of the sample as measured using the bicinchoninic acid assay [49].
(§4) For quantification of intracellular substrates, the cell debris were removed by centrifugation at 17,000 x g for 10 min. […]

[2] = target: T2, OCT1*3 (Arg61Cys) (Homo sapiens, UniProt O15245, L160F/R61C)
T2 sequence (O15245 1-554 R61C/L160F): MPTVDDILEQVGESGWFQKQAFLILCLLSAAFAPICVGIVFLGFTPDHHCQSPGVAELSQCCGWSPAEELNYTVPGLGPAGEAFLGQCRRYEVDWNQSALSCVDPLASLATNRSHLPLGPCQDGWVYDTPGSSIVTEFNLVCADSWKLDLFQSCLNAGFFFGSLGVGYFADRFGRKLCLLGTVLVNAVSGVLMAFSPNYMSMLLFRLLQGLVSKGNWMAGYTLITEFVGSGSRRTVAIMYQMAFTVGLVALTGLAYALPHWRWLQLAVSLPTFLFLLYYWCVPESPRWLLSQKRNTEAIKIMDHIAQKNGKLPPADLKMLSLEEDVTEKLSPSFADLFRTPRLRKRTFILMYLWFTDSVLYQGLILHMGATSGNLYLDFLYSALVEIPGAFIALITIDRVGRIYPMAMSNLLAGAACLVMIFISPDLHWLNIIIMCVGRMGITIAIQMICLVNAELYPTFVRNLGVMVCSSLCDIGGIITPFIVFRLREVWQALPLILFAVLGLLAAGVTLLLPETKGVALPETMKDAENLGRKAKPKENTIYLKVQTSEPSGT
Source text: as §1, §2, §3, §4

[3] = dogs; cited from earlier work
[4] = system: OCT1; details: literature data; cited from earlier work

SMILES: CNC(=C[N+](=O)[O-])NCCSCc1ccc(CN(C)C)o1 [ranitidine, Ranitidine]
- ranitidine uptake, OCT2-overexpressing compared to control cells [1]: 3.3 fold
- decrease of vmax compared to the reference allele [2]: more than 50%
- reduction of basolateral uptake by co-administration of probenecid [3]: four-fold
- Km [4]: 70 ± 9 µM
